Laboratory results published in ChEMBL document CHEMBL1156122, “Protein tyrosine phosphatase 1B inhibitors isolated from Morus bombycis” (Bioorg Med Chem Lett, 2009).

Each compound was assayed against T1, Tyrosine-protein phosphatase non-receptor type 1 (Homo sapiens, UniProt P18031) (assay: Inhibition of human recombinant PTP1B).
T1 sequence (P18031 whole entry): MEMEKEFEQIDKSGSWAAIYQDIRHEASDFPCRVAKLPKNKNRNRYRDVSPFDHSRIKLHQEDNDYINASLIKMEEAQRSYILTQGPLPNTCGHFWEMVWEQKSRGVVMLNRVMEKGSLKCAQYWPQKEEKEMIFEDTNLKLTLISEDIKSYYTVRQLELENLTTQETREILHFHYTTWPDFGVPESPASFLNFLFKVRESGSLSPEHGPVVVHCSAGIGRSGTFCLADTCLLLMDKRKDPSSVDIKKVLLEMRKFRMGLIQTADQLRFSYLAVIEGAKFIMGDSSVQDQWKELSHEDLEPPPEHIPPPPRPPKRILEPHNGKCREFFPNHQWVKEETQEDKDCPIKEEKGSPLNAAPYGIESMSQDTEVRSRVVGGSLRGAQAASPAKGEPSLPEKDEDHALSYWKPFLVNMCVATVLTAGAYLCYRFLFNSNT
An IC50 of 9.2 µM was found for `CC(C)=CCC/C(C)=C/Cc1c(O)cc(O)cc1-c1cc2ccc(O)cc2o1` [ALBAFURAN A] in this work.
An IC50 of 4.3 µM was found for `CC(C)=CCC/C(C)=C/Cc1c(O)ccc2cc(-c3cc(O)cc(O)c3CC=C(C)C)oc12` [MULBERROFURAN D] in this work.
An IC50 of 13.8 µM was found for `CC(C)=CCc1c(O)cc(C(=O)[C@H]2[C@@H](c3c(O)ccc(C(=O)/C=C/c4ccc(O)cc4)c3O)C=C(C)C[C@@H]2c2ccc(O)cc2)cc1O` [KUWANON V] in this work.
An IC50 of 2.7 µM was found for `CC(C)=CCC/C(C)=C\CC/C(C)=C\Cc1c(O)cc(O)cc1-c1cc2ccc(O)cc2o1` [MULBERROFURAN W] in this work.
An IC50 of 8.2 µM was found for `CC(C)=CCc1c(O)cc(C(=O)[C@H]2[C@@H](c3c(O)ccc(C(=O)/C=C/c4ccc(O)cc4)c3O)C=C(C)C[C@@H]2c2ccc(O)cc2O)cc1O` [KUWANON R] in this work.
An IC50 of 2.7 µM was found for `CC(C)=CCc1c(O)cc(C(=O)[C@H]2[C@@H](c3c(O)ccc(C(=O)/C=C/c4ccc(O)cc4O)c3O)C=C(C)C[C@@H]2c2ccc(O)cc2O)cc1O` [KUWANON J] in this work.
